In ChEMBL document CHEMBL5653631, “A Potent and Selective ULK1 Inhibitor Suppresses Autophagy and Sensitizes Cancer Cells to Nutrient Stress” (iScience, 2018):
Blank lines part the entries; values can stand above or below the compound they belong to.

Legend:
[1] = biological target: Angiopoietin-1 receptor (Homo sapiens) (UniProt Q02763); experiment: Inhibition of human recombinant Tie2 at 500 nM in presence of ATP by radiometric assay relative to control
[2] = biological target: Tyrosine-protein kinase ABL2 (Homo sapiens) (UniProt P42684); experiment: Inhibition of human recombinant ABL2 at 500 nM related to control ULK1
[3] = biological target: Mitogen-activated protein kinase 11 (Homo sapiens) (UniProt Q15759); experiment: Inhibition of human recombinant p38beta at 500 nM related to control ULK1
Sequence of Mitogen-activated protein kinase 11 (Homo sapiens) (Q15759 whole entry): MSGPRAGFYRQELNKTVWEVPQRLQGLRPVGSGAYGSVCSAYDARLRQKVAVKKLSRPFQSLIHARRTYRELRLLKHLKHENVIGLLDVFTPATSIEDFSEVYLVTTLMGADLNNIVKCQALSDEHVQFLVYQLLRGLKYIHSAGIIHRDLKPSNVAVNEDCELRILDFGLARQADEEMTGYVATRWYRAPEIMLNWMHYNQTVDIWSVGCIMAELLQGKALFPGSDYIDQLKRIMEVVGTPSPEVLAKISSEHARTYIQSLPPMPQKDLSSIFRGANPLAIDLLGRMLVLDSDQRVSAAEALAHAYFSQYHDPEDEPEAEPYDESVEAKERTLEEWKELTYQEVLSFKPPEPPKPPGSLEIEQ

[4] = biological target: T1, Myosin-IIIb (Homo sapiens) (UniProt Q8WXR4); experiment: Inhibition of human recombinant MYO3B at 500 nM related to control ULK1
T1 sequence (whole entry): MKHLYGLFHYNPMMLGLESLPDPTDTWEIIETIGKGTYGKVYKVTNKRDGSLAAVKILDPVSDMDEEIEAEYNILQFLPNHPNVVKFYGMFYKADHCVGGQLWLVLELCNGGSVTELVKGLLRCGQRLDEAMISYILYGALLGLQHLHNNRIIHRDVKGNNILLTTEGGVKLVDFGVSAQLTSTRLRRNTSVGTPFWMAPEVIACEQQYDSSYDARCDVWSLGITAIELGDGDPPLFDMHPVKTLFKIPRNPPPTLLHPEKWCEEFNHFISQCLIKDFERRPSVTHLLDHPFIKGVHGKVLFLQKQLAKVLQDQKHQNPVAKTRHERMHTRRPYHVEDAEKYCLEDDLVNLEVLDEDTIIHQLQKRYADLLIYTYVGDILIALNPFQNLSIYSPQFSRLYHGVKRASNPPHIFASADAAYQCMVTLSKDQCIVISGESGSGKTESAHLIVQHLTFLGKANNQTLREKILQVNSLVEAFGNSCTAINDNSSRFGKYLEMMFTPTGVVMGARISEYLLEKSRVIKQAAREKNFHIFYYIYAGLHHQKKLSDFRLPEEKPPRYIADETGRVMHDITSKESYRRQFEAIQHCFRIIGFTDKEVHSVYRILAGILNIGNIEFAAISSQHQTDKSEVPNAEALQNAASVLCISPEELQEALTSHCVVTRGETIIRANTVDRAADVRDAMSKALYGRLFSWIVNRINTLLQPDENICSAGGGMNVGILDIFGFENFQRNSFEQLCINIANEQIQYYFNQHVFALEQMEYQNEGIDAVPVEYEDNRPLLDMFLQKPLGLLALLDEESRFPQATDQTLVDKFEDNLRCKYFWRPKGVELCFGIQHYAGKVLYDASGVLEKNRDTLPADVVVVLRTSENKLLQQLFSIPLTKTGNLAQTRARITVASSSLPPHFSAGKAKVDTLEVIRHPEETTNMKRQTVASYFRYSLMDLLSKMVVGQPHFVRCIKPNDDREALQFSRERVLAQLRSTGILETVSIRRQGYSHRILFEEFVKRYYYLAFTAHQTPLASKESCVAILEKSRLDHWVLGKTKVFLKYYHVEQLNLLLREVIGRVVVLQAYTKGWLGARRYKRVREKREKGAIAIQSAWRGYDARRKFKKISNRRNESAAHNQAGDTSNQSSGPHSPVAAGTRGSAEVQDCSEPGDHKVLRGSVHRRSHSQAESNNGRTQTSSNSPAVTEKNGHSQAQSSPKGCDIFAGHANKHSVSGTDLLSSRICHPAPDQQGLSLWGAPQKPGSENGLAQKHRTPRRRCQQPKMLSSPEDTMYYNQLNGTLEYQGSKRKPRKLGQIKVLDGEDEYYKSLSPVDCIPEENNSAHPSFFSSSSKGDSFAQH

[5] = biological target: Tyrosine-protein kinase Fgr (Homo sapiens) (UniProt P09769); experiment: Inhibition of human recombinant FGR at 500 nM related to control ULK1
Sequence of Tyrosine-protein kinase Fgr (Homo sapiens) (P09769 2-529 limits assumed): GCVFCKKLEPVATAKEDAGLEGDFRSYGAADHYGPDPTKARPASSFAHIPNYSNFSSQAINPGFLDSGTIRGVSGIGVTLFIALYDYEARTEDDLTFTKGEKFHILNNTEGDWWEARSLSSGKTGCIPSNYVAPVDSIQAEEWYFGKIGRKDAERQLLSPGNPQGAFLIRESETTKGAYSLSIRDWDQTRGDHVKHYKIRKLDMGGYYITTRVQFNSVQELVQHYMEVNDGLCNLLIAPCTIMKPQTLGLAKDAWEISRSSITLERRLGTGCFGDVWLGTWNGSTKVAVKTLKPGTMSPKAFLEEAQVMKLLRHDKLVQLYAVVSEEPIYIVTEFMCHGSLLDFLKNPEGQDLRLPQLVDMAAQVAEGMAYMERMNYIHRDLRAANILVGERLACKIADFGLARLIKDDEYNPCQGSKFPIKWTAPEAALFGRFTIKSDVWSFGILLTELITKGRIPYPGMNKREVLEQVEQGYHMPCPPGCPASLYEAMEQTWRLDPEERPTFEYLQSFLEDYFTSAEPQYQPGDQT

[6] = biological target: T2, Ephrin type-A receptor 8 (Homo sapiens) (UniProt P29322); experiment: Inhibition of human recombinant EphA8 at 15 nM in presence of ATP by radiometric assay relative to control
T2 sequence (whole entry): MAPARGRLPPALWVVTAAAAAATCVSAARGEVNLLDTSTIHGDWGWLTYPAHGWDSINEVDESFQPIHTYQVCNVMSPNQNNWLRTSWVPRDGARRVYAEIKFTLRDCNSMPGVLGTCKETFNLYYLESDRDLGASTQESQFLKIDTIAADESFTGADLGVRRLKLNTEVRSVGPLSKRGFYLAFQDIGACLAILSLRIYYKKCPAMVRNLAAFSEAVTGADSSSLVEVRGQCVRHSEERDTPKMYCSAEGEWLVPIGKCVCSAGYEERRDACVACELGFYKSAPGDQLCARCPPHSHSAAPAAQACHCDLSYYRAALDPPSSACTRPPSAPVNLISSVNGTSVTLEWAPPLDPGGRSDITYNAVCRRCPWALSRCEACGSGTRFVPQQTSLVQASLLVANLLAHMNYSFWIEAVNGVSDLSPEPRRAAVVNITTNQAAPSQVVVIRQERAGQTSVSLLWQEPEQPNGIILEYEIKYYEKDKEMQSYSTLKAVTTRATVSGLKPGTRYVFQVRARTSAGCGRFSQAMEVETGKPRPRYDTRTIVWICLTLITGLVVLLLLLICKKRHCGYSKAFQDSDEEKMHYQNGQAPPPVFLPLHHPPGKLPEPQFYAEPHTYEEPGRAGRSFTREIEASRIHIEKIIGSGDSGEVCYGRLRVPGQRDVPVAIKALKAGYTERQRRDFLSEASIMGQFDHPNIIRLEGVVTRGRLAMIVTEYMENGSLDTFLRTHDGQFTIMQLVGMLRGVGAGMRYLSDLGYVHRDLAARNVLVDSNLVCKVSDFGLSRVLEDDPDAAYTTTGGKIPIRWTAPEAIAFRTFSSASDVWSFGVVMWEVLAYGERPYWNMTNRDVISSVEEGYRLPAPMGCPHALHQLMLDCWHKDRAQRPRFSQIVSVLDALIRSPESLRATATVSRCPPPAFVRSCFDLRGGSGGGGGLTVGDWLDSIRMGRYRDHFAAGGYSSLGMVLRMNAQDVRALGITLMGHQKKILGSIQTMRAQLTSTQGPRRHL

[7] = biological target: Rho-associated protein kinase 1 (Homo sapiens) (UniProt Q13464); experiment: Inhibition of human recombinant ROCK1 at 15 nM in presence of ATP by radiometric assay relative to control
Sequence of Rho-associated protein kinase 1 (Homo sapiens) (Q13464 2-1354 limits assumed): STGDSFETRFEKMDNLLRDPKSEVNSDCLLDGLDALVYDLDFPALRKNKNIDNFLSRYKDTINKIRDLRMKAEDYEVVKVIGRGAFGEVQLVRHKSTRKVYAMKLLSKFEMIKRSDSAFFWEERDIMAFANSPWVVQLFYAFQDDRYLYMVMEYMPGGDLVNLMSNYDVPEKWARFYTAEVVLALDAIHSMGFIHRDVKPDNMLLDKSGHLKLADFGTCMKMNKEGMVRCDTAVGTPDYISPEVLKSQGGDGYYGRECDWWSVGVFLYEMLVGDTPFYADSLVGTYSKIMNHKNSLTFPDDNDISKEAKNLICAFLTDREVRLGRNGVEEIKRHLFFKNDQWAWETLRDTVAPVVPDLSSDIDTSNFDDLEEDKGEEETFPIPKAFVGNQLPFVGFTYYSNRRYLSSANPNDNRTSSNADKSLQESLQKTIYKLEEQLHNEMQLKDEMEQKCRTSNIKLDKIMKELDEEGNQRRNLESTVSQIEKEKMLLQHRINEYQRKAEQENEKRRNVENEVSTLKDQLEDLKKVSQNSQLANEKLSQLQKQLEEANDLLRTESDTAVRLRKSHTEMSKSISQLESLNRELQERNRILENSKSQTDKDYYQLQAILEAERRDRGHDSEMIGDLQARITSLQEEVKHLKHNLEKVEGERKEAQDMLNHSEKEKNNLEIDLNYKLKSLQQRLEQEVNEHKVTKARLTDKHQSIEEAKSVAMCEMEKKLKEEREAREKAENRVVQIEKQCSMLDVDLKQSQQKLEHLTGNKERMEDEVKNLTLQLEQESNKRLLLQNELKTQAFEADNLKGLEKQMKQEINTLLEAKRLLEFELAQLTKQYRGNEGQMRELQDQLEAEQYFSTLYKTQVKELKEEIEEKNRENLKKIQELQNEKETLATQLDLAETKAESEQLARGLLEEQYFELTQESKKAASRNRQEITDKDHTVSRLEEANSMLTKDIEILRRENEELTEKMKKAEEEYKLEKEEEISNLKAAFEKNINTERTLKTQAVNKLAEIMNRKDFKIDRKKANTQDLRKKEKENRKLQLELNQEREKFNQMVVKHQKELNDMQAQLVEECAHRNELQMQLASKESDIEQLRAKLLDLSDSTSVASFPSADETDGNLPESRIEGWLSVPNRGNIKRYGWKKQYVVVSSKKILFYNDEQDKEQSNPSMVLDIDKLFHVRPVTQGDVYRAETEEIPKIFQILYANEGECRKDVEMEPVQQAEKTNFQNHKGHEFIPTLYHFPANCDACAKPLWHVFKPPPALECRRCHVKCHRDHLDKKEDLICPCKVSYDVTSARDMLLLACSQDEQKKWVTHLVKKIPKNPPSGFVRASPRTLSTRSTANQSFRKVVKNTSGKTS

[8] = biological target: Calcium/calmodulin-dependent protein kinase kinase 2 (Homo sapiens) (UniProt Q96RR4); experiment: Inhibition of human recombinant CaMKK2 at 40 nM in presence of ATP by radiometric assay relative to control
Sequence of Calcium/calmodulin-dependent protein kinase kinase 2 (Homo sapiens) (Q96RR4 2-588 limits assumed): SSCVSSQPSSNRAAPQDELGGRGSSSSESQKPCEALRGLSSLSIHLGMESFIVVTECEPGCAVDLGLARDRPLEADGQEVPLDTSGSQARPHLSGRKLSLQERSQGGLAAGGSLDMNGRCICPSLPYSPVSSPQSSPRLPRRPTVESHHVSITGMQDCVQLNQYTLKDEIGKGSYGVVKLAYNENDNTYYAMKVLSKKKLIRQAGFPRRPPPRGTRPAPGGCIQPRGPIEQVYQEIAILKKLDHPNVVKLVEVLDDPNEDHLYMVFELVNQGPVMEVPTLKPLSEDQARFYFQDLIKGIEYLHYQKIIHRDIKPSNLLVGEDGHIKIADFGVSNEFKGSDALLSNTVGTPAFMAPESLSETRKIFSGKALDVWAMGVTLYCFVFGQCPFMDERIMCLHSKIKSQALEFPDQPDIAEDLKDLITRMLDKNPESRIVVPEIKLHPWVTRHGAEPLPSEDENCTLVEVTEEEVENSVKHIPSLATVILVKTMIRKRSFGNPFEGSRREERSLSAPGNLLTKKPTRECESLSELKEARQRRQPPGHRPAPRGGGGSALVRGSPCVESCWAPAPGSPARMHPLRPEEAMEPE

[9] = biological target: Serine/threonine-protein kinase N1 (Homo sapiens) (UniProt Q16512); experiment: Inhibition of human recombinant PKN1 at 40 nM related to control ULK1
Sequence of Serine/threonine-protein kinase N1 (Homo sapiens) (Q16512 2-942 limits assumed): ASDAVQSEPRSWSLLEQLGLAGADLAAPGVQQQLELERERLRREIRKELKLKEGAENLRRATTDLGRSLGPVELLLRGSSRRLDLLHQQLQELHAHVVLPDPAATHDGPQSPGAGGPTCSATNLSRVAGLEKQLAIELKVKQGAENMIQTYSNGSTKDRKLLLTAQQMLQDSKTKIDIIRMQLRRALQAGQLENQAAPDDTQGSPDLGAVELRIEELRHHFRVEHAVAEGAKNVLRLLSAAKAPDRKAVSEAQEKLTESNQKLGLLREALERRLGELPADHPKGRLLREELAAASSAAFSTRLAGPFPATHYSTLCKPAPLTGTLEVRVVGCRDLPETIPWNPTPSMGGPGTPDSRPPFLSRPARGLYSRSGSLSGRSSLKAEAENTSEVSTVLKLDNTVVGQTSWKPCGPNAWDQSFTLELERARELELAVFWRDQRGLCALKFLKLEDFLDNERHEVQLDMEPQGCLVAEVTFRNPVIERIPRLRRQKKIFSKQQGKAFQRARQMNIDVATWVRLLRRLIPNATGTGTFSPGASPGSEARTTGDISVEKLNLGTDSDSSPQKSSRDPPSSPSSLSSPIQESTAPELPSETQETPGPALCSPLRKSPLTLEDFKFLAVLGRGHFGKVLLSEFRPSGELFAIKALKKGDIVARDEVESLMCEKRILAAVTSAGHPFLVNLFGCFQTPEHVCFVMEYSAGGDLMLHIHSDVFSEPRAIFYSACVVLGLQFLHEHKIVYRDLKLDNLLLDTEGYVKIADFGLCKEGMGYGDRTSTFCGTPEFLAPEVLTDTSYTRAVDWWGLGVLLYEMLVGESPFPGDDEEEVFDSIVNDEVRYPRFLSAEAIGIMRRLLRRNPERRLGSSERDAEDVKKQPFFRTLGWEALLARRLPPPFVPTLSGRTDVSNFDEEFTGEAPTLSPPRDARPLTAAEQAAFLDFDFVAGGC

[10] = biological target: Mitogen-activated protein kinase 11 (Homo sapiens) (UniProt Q15759); experiment: Inhibition of human recombinant p38beta at 40 nM in presence of ATP by radiometric assay relative to control
[11] = biological target: T2, Ephrin type-A receptor 8 (Homo sapiens); experiment: Inhibition of human recombinant EphA8 at 40 nM in presence of ATP by radiometric assay relative to control

Sequence of Angiopoietin-1 receptor (Homo sapiens) (Q02763 whole entry): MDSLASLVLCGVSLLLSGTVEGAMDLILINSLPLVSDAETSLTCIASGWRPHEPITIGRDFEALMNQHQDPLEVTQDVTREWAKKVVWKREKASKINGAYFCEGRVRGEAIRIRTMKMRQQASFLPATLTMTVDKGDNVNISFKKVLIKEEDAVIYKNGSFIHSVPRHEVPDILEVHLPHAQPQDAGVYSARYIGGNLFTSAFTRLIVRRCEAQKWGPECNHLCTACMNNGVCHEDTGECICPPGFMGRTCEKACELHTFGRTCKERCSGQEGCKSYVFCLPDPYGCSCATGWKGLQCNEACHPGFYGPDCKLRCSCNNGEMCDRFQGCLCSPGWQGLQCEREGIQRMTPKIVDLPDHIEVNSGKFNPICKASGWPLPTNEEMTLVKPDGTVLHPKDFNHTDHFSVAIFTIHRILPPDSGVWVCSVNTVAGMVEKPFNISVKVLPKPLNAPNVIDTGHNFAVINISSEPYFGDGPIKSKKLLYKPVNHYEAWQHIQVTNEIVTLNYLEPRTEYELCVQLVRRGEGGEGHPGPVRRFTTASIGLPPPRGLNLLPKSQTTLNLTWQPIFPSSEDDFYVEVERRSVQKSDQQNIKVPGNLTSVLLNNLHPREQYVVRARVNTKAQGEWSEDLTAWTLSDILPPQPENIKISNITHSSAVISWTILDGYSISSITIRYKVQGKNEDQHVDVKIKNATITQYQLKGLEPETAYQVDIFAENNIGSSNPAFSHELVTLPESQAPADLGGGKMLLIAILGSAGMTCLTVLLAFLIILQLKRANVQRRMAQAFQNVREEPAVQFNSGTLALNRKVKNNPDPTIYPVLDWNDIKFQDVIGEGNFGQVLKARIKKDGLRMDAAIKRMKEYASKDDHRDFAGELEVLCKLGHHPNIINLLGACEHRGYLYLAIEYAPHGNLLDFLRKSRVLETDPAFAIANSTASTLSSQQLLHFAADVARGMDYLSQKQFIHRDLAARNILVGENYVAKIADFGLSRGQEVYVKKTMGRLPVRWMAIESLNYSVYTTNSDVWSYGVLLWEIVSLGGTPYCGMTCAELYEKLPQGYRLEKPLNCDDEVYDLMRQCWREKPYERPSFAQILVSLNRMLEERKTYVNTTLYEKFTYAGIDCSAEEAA

inhibition [1]: 23%
fold change (FC) [2]: 0.28
fold change (FC) [3]: 0.03
fold change (FC) [4]: 0.15
fold change (FC) [5]: 0.11
Compound: CNC(=O)c1ccccc1Oc1nc(Nc2cc(OC)c(OC)c(OC)c2)ncc1Br

inhibition [6]: 0%
inhibition [7]: 8%
Compound: CC(C)[C@H](NC(=O)c1cc(-c2cnn3cc(-c4ccc(OCCN5CCCCC5)cc4)cnc23)cs1)C(F)(F)F

inhibition [8]: 0%
fold change (FC) [9]: 0
inhibition [10]: 10%
inhibition [11]: 0%
Compound: O=C(N[C@@H](C1CC1)C(F)(F)F)c1cc(-c2cnn3cc(-c4ccc(F)cc4)cnc23)cs1
